Measured values taken from a melting point compilation (Tetko et al.; mined from patent text by program, amines drawn as free bases though some values may be those of a salt).

Point of comparison: CSc1ccc(C)cc1C(N)=S, melting point 160 °C. Against it:
- COc1cccc(CNc2ncnc3c2sc2nc(N4CCOCC4)c4c(c23)CC(C)(C)CC4)c1OC — higher, 219 to 220 °C
- CCOC(=O)c1c(N(Cc2c(F)cccc2F)C(=O)OCC)sc(-c2ccc([N+](=O)[O-])cc2)c1CBr — lower, 105 to 108 °C
- CCCCCC(CO)n1cnc(NC(=O)c2ccccc2C(=O)O)c1 (stereo unspecified) — lower, 99 to 101 °C
- O=C(O)CNc1ccc2ccccc2c1 — higher, 219 to 221 °C
- N=C(O[C@@H]1CCCC=C1Cl)C(Cl)(Cl)Cl — lower, 78 to 79 °C
- CCOCCOc1cc(-n2nc(C)c(Cl)c2C)c(F)cc1C#N — lower, 86 °C
- CC1CC(=O)NN=C1c1ccc(NC2=CC(=O)CC2)cc1 (stereo unspecified) — higher, > 300 °C
- COC1=C(OC)C(=Nc2ccc(Cl)c(Cl)c2)N(C)C1=O — lower, 111 to 113 °C
- COC1OC(=O)c2cccc([N+](=O)[O-])c21 (stereo unspecified) — lower, 115 to 118 °C
- COc1ccc(C=NNS(=O)(=O)c2ccc(C)cc2)cc1 — lower, 103 to 105 °C
- N#Cc1ccc(Cn2cncc2CCCO)cc1 — lower, 121 to 123 °C
- CC(=O)Nc1ccccc1S(=O)(=O)NCCN1[C@H](C)Cc2ccsc2[C@@H]1C (relative stereo) — lower, 104 to 109 °C
- Cc1cc(I)ccc1Nc1c(-c2nnn[nH]2)ccc(F)c1F — lower, 83.4 to 88.7 °C
- NC(=S)N(c1ccsc1-c1nc(C2CC2)no1)C1CN2CCC1CC2 (stereo unspecified) — lower, 155 to 157 °C
- O=C(CCCl)Nc1ccc(F)c(F)c1 — lower, 76 °C
- CC(C)(C)OC(=O)C[C@H](NC(=O)CNC(=O)c1csc(NC(=O)NCc2ccccc2)n1)C(=O)Nc1ccccc1C(=O)OC(C)(C)C — lower, 116 °C
- COc1ccc2[nH]c3c(c2c1)CCC(C(=O)O)C3 (stereo unspecified) — higher, 226 to 228 °C
- COc1ccc(CN2CCCc3cc(OCc4ccccc4)c(OC)cc3C2)cc1 — lower, 87 to 88 °C
- O=C(N1CCc2ccccc2CC1)C(F)(F)F — lower, 73 to 74 °C
- CCCCCCCCCCCCCCCCCCN(CCCCCCCCCCCCCCCCCC)c1ccccc1 — lower, 110 to 111 °C
- CS(=O)(=O)N1Cc2cccc(-c3ccc4cnc(Nc5ccc(C6CCN(CC(N)=O)CC6)cc5)nn34)c2C1 — higher, 244 to 247 °C
- Cc1ccc(C)c(NC(=O)CCl)c1C — lower, 145 to 146 °C
- Cc1nc[nH]c1CSCCC1=NCCS(=O)(=O)N1 — lower, 146 to 147 °C
- CN(c1ccc(F)c2cc(-c3nccs3)[nH]c12)S(=O)(=O)c1cccs1 — higher, 197 to 198 °C
- Cc1[nH]c2ccccc2c1Cc1cccnc1 — higher, 207 to 210 °C
- Cc1ccc(Oc2noc(=O)n2S(=O)(=O)c2c(C)noc2C)c(C)c1 — lower, 135 to 136 °C
- CCOC(=O)c1cn(C(C)CSc2ccccc2)c2nc(F)c(Cl)cc2c1=O (stereo unspecified) — lower, 70 °C
- CCC1(O)CC(=O)OCc2c1ccn(Cc1cc3cc4c(cc3nc1I)OCCO4)c2=O (stereo unspecified) — higher, 165 to 167 °C
- COc1ccc(-c2ccc(C=O)c3ccccc23)cc1F — lower, 137 to 138 °C
- COC12CC(C)(C)C(OC(C)=O)C(C=C1C)O2 (stereo unspecified) — lower, 54 to 55 °C
- CC(=O)N(c1ccc(O)cc1)C(C)C — lower, 152 to 153 °C
- CN1Cc2c(-c3nc(C4CC4)no3)ncn2-c2ccc(F)cc2C1=O — higher, 216 to 217 °C
- CNC(=O)c1ccc(C=CC(=O)Nc2cccc(-c3ccc(C)c(CCl)c3C)c2)cc1 — higher, 236 to 244 °C
- Cc1c(Cl)cccc1N=c1scc(-c2ccc(Cl)c(S(=O)(=O)N(C)C)c2)n1C — lower, 144 to 146 °C
- CC(C)(C)OC(=O)NCCCON=C(c1ccccc1)c1cc2ccncc2[nH]1 — lower, 52 to 58 °C
- COc1cc(C(C)(C)C)c(OC)cc1I — lower, 80.5 to 82.5 °C
- CSc1nc(-c2ccc(C(F)(F)F)cc2)c2cc(C)sc2n1 — lower, 113 °C
- Cc1c(N)c(C)c(C(C)C)c2c1CC(C)(CN1CCC(c3ccccc3)CC1)O2 (stereo unspecified) — lower, 128 to 131 °C
- COc1nc(C)c(C)nc1NC(=S)N1CCN(c2cc(C)cc(C)c2)CC1 — not separable, 160 to 162 °C
- CCC(=O)CNC(=O)CSc1cnc(NC(C)=O)s1 — higher, 195 to 196 °C
- O=C(O)c1cn([C@@H]2C[C@@H]2F)c2c(F)c(N3C[C@@H]4CCCN[C@@H]4C3)c(F)cc2c1=O — higher, 271 to 273 °C
- CCN1C(=O)C(C)(C)CCc2c1ccc(Nc1ncc(Cl)c(Nc3ccc(N4CCOCC4)cc3OC)n1)c2OC — higher, 181 to 183 °C
- CC(=O)NC(C(=O)NC(C(=O)NC(Cc1ccccc1)C(O)C(Cc1ccccc1)NC(=O)C(NC(=O)C(NC(C)=O)C(C)C)C(C)C)C(C)C)C(C)C (stereo unspecified) — higher, 271 to 272 °C
- CC(C)(C)C(=O)C(N)=O — lower, 69 to 70 °C
- CNC1CC=C(c2c[nH]c3ccc(NC(=N)c4cccs4)cc23)CC1 (stereo unspecified) — higher, 167 to 169 °C
- CSc1ccc(C(=N)Nc2ccc(C)c(C)c2)cc1 — lower, 111 to 113 °C
- OC(CCc1ccc(Cl)s1)Cn1ccnc1 (stereo unspecified) — lower, 82 to 84.5 °C
- Cc1ccc(-c2nc(COc3ccc(CCCn4ccnc4)cc3Cl)co2)s1 — lower, 95 to 96 °C
- COC(=O)c1ccc(Cn2c(=O)c(C)c3sc(C(=O)NCc4ccc(F)cc4)cn3c2=O)cc1C — higher, 179 to 180 °C
- O=C1NC(=O)C(Cc2ccc(OC3=C(Cl)C(=O)c4ccccc4C3=O)cc2)S1 (stereo unspecified) — higher, 250 to 252 °C
- O=C1Nc2ccccc2C(c2ccccc2)N1C1CCN(Cc2ccccc2)CC1 (stereo unspecified) — higher, 199 to 200 °C
- Cc1noc(NS(=O)(=O)c2ccccc2-c2ccc(-c3ncco3)cc2CN(C)C(=O)CC(F)(F)F)c1C — lower, 85 to 100 °C
- CC1(C)OC(c2ccccc2)CN1C(=O)C(Cl)Cl (stereo unspecified) — lower, 99.5 to 100 °C
- COc1ccc(C(=O)c2ccc(O)cc2)c(OC(C)(C)C(=O)OC(C)(C)C)c1 — higher, 172 to 173 °C
- C[Si](C)(CCSCCCNC(=O)n1cc(F)c(=O)[nH]c1=O)c1ccccc1 — lower, 93.5 to 94 °C
- O=C(c1ccc2c(c1)OCCO2)c1ccc2noc(-c3cccc(Cl)c3)c2c1 — higher, 195 °C
- Cc1ccc(C#Cc2cnc(-c3ccc(C(F)(F)F)cc3)s2)s1 — lower, 107 to 108 °C
- CCCCc1nc2c(N)nc3ccccc3c2n1CCNS(=O)(=O)c1ccc(C)cc1 — higher, 187 to 188 °C
- CCc1cccc2sc(COc3ccc(F)c(C(N)=O)c3F)nc12 — higher, 184 to 186 °C
- O=c1[nH]nc2c3c(cccc13)N=CN2 — higher, > 300 °C
- O=C1NCN(c2ccccc2)C12CCN(CC1=Cc3cc(Cl)ccc3CC1)CC2 — higher, 191 to 192 °C
- CN1C(=O)N2CCSC2(c2ccccc2)C1=O (stereo unspecified) — lower, 100 to 102 °C
- Cn1c([N+](=O)[O-])cnc1C(C)(C)O — lower, 102 to 107 °C
- O=C(O)CC1CCCc2c1n(Cc1ccccc1Cl)c1c(F)cc(F)cc21 (stereo unspecified) — higher, 197 to 198 °C
- O=C1c2ccccc2C(=O)N1CC(=O)N1c2ccc(F)cc2N(Cc2ccccc2)C(=O)C2CCC[C@H]21 (single isomer, unassigned) — higher, 266 to 268 °C
- CN(C)C1(c2ccccc2)CCC(NC2c3ccccc3-c3ccccc32)CC1 (stereo unspecified) — higher, 202 to 205 °C
- FC(F)(F)c1cc(Cl)c2cc(Cl)cc(Cl)c2n1 — lower, 74 to 76 °C
- Cc1cc([N+](=O)[O-])ccc1NC(=O)c1cc(C(C)(C)C)ccc1O — higher, 202 to 204 °C
- CC(C)(C)c1ccc2c(c1)cc(-c1ccccc1)n2-c1ccc(O)c(C(=O)O)c1 — higher, 271 to 273 °C
- CCCN1C(=O)C2(CC(C)C)CC(c3ccc([N+](=O)[O-])cc3)(C2)C1=O — lower, 87 to 88 °C
